Activity and ΔTm data for 3 compounds are collected here from ChEMBL document CHEMBL1145602, “Synthesis and DNA binding ability of cyclam-amino acid conjugates” (Bioorg Med Chem Lett, 2008).

The assay relates to DNA. The experiment in a line: Binding affinity to calf thymus DNA at pH 7 by thermal denaturation assay. The format is nucleic-acid assay. Conditions: Bos taurus.

Each structure is given as a SMILES string. Calls of active or inactive are those of the source. No cut-off for these calls is given here.

With `C[C@H](NC(=O)CN1CCCNCCNCCCNCC1)C(=O)O`, the result was Active.

On to `O=C(CN1CCCNCCNCCCNCC1)N[C@@H](Cc1ccccc1)C(=O)O`, for which the outcome was Active. As a reminder, the ΔTm is the change in melting temperature against a reference sample. In the case of `O=C(CN1CCCNCCNCCCNCC1)N[C@@H](COCc1ccccc1)C(=O)O`, the ΔTm is 8 °C.
